Measured values from the NIST ThermoML archive (doi:10.1016/j.fluid.2010.06.003).
Several values for one entry are separate records, joined by “and”; a condition that tells them apart may be missing. Equal values may be shown once.

Assay: xn = mol fraction of the nth substance listed
Conditions: Liquid, Taylor dispersion method, x1 = 0

CCc1ccc[cH-]1.[Fe+2].c1cc[cH-]c1 [ethyl ferrocene] + CCO
Conditions	binary diffusion coefficient
313.15 K, 200 kPa	1.29e-09 m2/s and 1.32e-09 m2/s and 1.31e-09 m2/s

C[c-]1cccc1.C[c-]1cccc1.[Fe+2] [1,1'-dimethylferrocene] + CCCCCC
313.15 K
Conditions	binary diffusion coefficient
160 kPa	3.36e-09 m2/s and 3.4e-09 m2/s and 3.37e-09 m2/s
170 kPa	3.41e-09 m2/s
11030 kPa	3.05e-09 m2/s and 3.06e-09 m2/s
15990 kPa	2.9e-09 m2/s
16000 kPa	2.89e-09 m2/s and 2.87e-09 m2/s
16010 kPa	2.9e-09 m2/s
16030 kPa	2.9e-09 m2/s
19020 kPa	2.84e-09 m2/s

C[c-]1cccc1.C[c-]1cccc1.[Fe+2] [1,1'-dimethylferrocene] + C1CCCCC1
binary diffusion coefficient
Conditions	190 kPa	11020 kPa	11030 kPa	11090 kPa	16000 kPa	16010 kPa	16020 kPa	16030 kPa	19010 kPa	19020 kPa
313.15 K	1.36e-09 m2/s and 1.37e-09 m2/s	1.2e-09 m2/s	1.2e-09 m2/s	1.21e-09 m2/s	–	1.14e-09 m2/s	1.14e-09 m2/s	1.13e-09 m2/s	1.09e-09 m2/s	1.09e-09 m2/s and 1.14e-09 m2/s and 1.11e-09 m2/s
323.15 K	–	–	–	–	1.36e-09 m2/s	–	1.36e-09 m2/s	1.36e-09 m2/s	–	–

[CH]1C=CC=C1.[CH]1C=CC=C1.[Fe] [ferrocene] + CCO
Conditions	binary diffusion coefficient
313.15 K, 200 kPa	1.48e-09 m2/s and 1.46e-09 m2/s and 1.45e-09 m2/s

CCc1ccc[cH-]1.[Fe+2].c1cc[cH-]c1 [ethyl ferrocene] + C1CCCCC1
binary diffusion coefficient
Conditions	170 kPa	180 kPa	11020 kPa	11030 kPa	16020 kPa	16030 kPa	19010 kPa	19020 kPa	19030 kPa
313.15 K	1.38e-09 m2/s	1.36e-09 m2/s and 1.38e-09 m2/s	1.21e-09 m2/s	1.2e-09 m2/s	–	1.14e-09 m2/s and 1.15e-09 m2/s	1.12e-09 m2/s and 1.15e-09 m2/s	1.12e-09 m2/s	1.11e-09 m2/s
323.15 K	–	–	–	–	1.36e-09 m2/s	1.35e-09 m2/s	–	–	–

[CH]1C=CC=C1.[CH]1C=CC=C1.[Fe] [ferrocene] + CCCCCC
binary diffusion coefficient
Conditions	160 kPa	170 kPa	10990 kPa	11070 kPa	11090 kPa	15990 kPa	16010 kPa	16020 kPa	16030 kPa	19020 kPa
313.05 K	–	–	–	–	–	–	–	3.14e-09 m2/s	3.11e-09 m2/s	–
313.15 K	3.66e-09 m2/s and 3.65e-09 m2/s	3.64e-09 m2/s	3.28e-09 m2/s and 3.25e-09 m2/s	3.28e-09 m2/s	3.29e-09 m2/s	3.17e-09 m2/s	3.13e-09 m2/s	3.12e-09 m2/s	3.11e-09 m2/s and 3.14e-09 m2/s	3.07e-09 m2/s

[CH]1C=CC=C1.[CH]1C=CC=C1.[Fe] [ferrocene] + C1CCCCC1
binary diffusion coefficient
Conditions	313.15 K	323.15 K
170 kPa	1.52e-09 m2/s	–
190 kPa	1.51e-09 m2/s	–
200 kPa	1.5e-09 m2/s	–
11030 kPa	1.31e-09 m2/s	–
11080 kPa	1.31e-09 m2/s	–
11090 kPa	1.32e-09 m2/s	–
16010 kPa	1.25e-09 m2/s	–
16020 kPa	1.25e-09 m2/s	1.48e-09 m2/s
16030 kPa	1.25e-09 m2/s	1.48e-09 m2/s
19010 kPa	1.21e-09 m2/s	–
19020 kPa	1.21e-09 m2/s and 1.22e-09 m2/s and 1.24e-09 m2/s	–

CCc1ccc[cH-]1.[Fe+2].c1cc[cH-]c1 [ethyl ferrocene] + CCCCCC
313.15 K
Conditions	binary diffusion coefficient
160 kPa	3.35e-09 m2/s and 3.37e-09 m2/s and 3.38e-09 m2/s and 3.3e-09 m2/s and 3.34e-09 m2/s
11060 kPa	2.98e-09 m2/s
11070 kPa	3e-09 m2/s and 2.99e-09 m2/s
16010 kPa	2.86e-09 m2/s and 2.89e-09 m2/s
16030 kPa	2.87e-09 m2/s
18960 kPa	2.81e-09 m2/s
19010 kPa	2.78e-09 m2/s

C[c-]1cccc1.C[c-]1cccc1.[Fe+2] [1,1'-dimethylferrocene] + CCO
Conditions	binary diffusion coefficient
313.15 K, 200 kPa	1.29e-09 m2/s and 1.3e-09 m2/s and 1.31e-09 m2/s
